In patent EP2070529B1, “Medical use of 3-(2,2,2-trimethylhydrazinium) propionate orotate” (Grindeks, a joint stock company, priority 2007, dated 2009):
Values joined by “and” are separate entries in the source; they are usually repeats but may differ in a detail not shown here. Identical values can stand only once. Marks after values point to notes of the source that are not given here.

What was measured:
rats = test: Acute arrhythmia induced by calcium chloride, lethality; type: in vivo, Wistar rats; conditions: deaths/rats per group (8 rats), p.o. 14 days (Meldonium dihydrate 120 mg/kg, Meldonium orotate 204 mg/kg), last dose 24 h before, CaCl2 185 mg/kg, ECG until 10 minutes after
Description: Experiment was conducted on adult male Wistar rats. During the experiment, the animals were kept in Standard crates in groups of 8. The feed was a standardized diet R3 (LABFOR, Lactamin AB, Sweden). The room temperature was kept at 21-23°C, relative humidity at 65±10%, 12 hour light/darkness cycle. The experimental procedures were carried out in accordance with the guidelines of the European Community and local laws and policies and were approved by Latvian Animal Protection Ethical Committee, the Food and Veterinary Service.
An experimental acute arrhythmia was caused by introducing in rats solution of Calcium chloride.
Rats weighing 240-250 g randomized were divided into 3 groups, where in all groups there were 8 rats. During all 14 days rats got experimental preparations: Meldonium dihydrate or Meldonium orotate. The first group of 8 rats received drinking water (control group), the second group of 8 rats received Meldonium dihydrate (120 mg/kg p.o.) and the third group of 8 rats received Meldonium orotate (204 mg/kg p.o.). The last dose of experimental preparations animals got 24 h before the experiment. […] When narcosis started to influence to rat, there was cannulated left femoral vena for introducing of 10 % CaCl2 and after that there was connected ECG's recoding device (ADlnstrument PowerLab systems) and read ECG from the II lead. […]

isolated rat heart = test: Isolated rat heart infarction model; type: in vivo, Wistar rats; conditions: by mouth for 14 days (Meldonium dihydrate 120 mg/kg, orotic acid 100mg/kg, Meldonium orotate 200 mg/kg), 60 minutes occlusion, 150 minute reperfusion
Description: Experiments were conducted on adult male Wistar rats with initial weight of 280-310g. During the experiment, the animals were kept in Standard crates in groups of 8. The feed was a standardized diet R70 (LABFOR, Lactamin AB, Sweden). The room temperature was kept at 21-23°C, relative humidity at 65±10%, 12 hour light/darkness cycle.
Rats weighing approximately 300 g were randomly divided in 4 groups. The first group received saline by mouth (control group), the second group 120 mg/kg Meldonium dihydrate, the third orotic acid 100mg/kg and the fourth group 200 mg/kg Meldonium orotate by mouth for 14 days.
Rats were anesthetized with sodium pentobarbital (60 mg/kg) and heparin (1 IU/g) was administrated concomitantly. Hearts were excised and retrogradely perfused via aorta at a constant pressure of 50 mm Hg, with oxygenated Krebs-Henseleit buffer ( content in mmol/L: NaCl 118, Ca Cl2 2.52, MgCl2 1.64, NaHCO3 24.88, KH2PO4 1.18, glucose 10.0, EDTA 0.05) pH 7.3-7.5 at 37°C.
A 5-0 polypropylene suture (Surgipro II, Syneture) was passed under the left anterior descending coronary artery and threaded through a small plastic tube to permit reversible occlusion of the coronart artery. Coronary flow was measured using an ultrasound flow detector (HSE) and PowerLab 8/30 system from ADlnstruments.
Hearts were adapted for 20 minutes and occlusion was performed for 60 minutes by constricting threads through a plastic tube.
At the end of the 150 minute reperfusion, the left anterior descending coronary artery was relegated and the risk zone was delineated with 0.1 % methylene blue solution in Krebs-Henseleit buffer infused via the aorta root. Hearts were sectioned transversely from the apex to the base of 2 mm thickness and incubated in 1 % triphenyl-tetrazolium chloride in phosphate buffer (pH 7.4, 37°C) for 10 minutes to stain viable tissue red and necrotic tissue white. […] Computerized planemetric analysis of photographs was performed using Image-Pro Plus 4.5.1 software to determine the area at risk (AR) and area of necrosis (AN) expressed as percentage of the left ventricle (LV). […]

SMILES: C[N+](C)(C)NCCC(=O)[O-] [Meldonium dihydrate, 3-(2,2,2-Trimethylhydrazinium) propionate dihydrate]
- Fatal outcome (rats; dihydrate): 2/8
- Infarct size, % of control (isolated rat heart; IS = AN/AR x 100, dihydrate): 76.9±5.9 % of control

SMILES: C[N+](C)(C)NCCC(=O)[O-] [Meldonium orotate, 3-(2,2,2-trimethylhydrazinium) propionate orotate]
- Fatal outcome (rats): no lethal cases and 0/8
- Infarct size, % of control (isolated rat heart; IS = AN/AR x 100): 49.1±6.1***^,#,& % of control

SMILES: O=C(O)c1cc(=O)[nH]c(=O)[nH]1 [Orotic acid]
- Infarct size, % of control (isolated rat heart; IS = AN/AR x 100): 75.0±7.7 % of control
